In patent US20070161611A1, “POLYCYCLIC PHENOLIC COMPOUNDS AND USE IN TREATING VIRAL INFECTIONS” (priority 2005, published 2007):
Like-named read-outs stand apart in the source and are kept apart here.

How the values were obtained:
[1] = tested on: BVDV-NADL; assay: Protection of MDBK cells from BVDV-induced cytopathicity (MTS/PMS CPE reduction assay); format: cell-based; settings: Bovine viral diarrhea virus isolates and strains
Procedure: Cell proliferation was monitored using a non-radioactive MTS/PMS assay (MTS: 3-(4,5-dimethylthiazol-2-yl)-5-(3-carboxymethoxy phenyl)-2-(4-sulfophenyl)-2H-tetrazolium (Promega, Madison, Wis.)); (PMS: phenazine methosulfate (Sigma Aldrich, St. Louis, Mo.)). MDBK cells were seeded into 96-well plates at a density of approximately 2×10^4 cells per well. The cultures were incubated 3-24 hours to permit attachment of the cells to the plates prior to infection and addition of compounds. The appropriate PFU of BVDV-NADL were added to each well to achieve the desired MOI (<1 or >0.001); the cells were exposed to the virus diluted at the appropriate concentration in phosphate buffered saline (PBS) containing 1% horse serum (HS) for 1 to 2 hours. The virus was then removed and the cells were washed with PBS containing 1% HS. The test compounds were serially diluted in cell growth media with 2% HS and added to the cells. The plates were incubated at 37° C. in the presence of 5% CO2 for 3-4 days. Uninfected cells and infected, untreated cells (without compound) were used as additional controls. The final volume was 100 μl per well. After the 3-4 days of incubation a volume of 20 μL of the combined MTS/PMS solution was added into each well of the 96-well assay plate containing 100 μL of cells in culture medium to obtain final concentrations of 333 μg/ml MTS 5 and 25 μM PMS. A 96-well microtiter spectrophotometer plate reader was used to measure the absorbance at 490 nm after incubation of the 96-well plate for 1 to 4 hours at 37° C. in a humidified, 5% CO2 atmosphere. The mean absorbance in each set of triplicate wells was determined. Antiviral activity was measured as MTS conversion relative to the differential between the conversion for cell (non-infected) and viral (non-drug-treated) controls. The cytopathic effect (CPE) reduction for each concentration of the tested compound, which correlated with antiviral activity, was calculated as follows. % CPE reduction=[(D−ND)/(NI−ND)]×100, where D (drug-treated)=the absorbance of drug-treated cells; ND (non drug-treated)=the absorbance of untreated infected cells; and NI (non-infected)=the absorbance of non-infected cells. EC50 represents the concentration of drug that protects 50% of the cells from BVDV induced cytotoxicity (50% CPE reduction). CC50 equals the concentration that affects the viability of 50% of the MDBK cells.
The compounds were combined at fixed molar ratios and serially diluted 2-fold in cell growth medium to examine a range of 6 fixed ratio combinations including those having about an equipotent antiviral dose to a combination in which one test compound was used at a sub-optimal level (e.g., sub-therapeutic).

[2] = tested on: HIV-1RF; assay: Anti-HIV-1 activity in CEM-SS cells (inhibition of HIV-1 induced cytotoxicity); settings: Human immunodeficiency virus 1, CEM-SS; for EC50: read-out: CEM-SS/HIV-1RF EC50
[3] = in vitro; settings: human
[4] = in vitro; format: cell-based; settings: bovine
Procedure: Cell proliferation was monitored using a non-radioactive MTS/PMS assay (MTS: 3-(4,5-dimethylthiazol-2-yl)-5-(3-carboxymethoxy phenyl)-2-(4-sulfophenyl)-2H-tetrazolium (Promega, Madison, Wis.)); (PMS: phenazine methosulfate (Sigma Aldrich, St. Louis, Mo.)). MDBK cells were seeded into 96-well plates at a density of approximately 2×10^4 cells per well. The cultures were incubated 3-24 hours to permit attachment of the cells to the plates prior to infection and addition of compounds. […] A 96-well microtiter spectrophotometer plate reader was used to measure the absorbance at 490 nm after incubation of the 96-well plate for 1 to 4 hours at 37° C. in a humidified, 5% CO2 atmosphere. The mean absorbance in each set of triplicate wells was determined. Antiviral activity was measured as MTS conversion relative to the differential between the conversion for cell (non-infected) and viral (non-drug-treated) controls. The cytopathic effect (CPE) reduction for each concentration of the tested compound, which correlated with antiviral activity, was calculated as follows. % CPE reduction=[(D−ND)/(NI−ND)]×100, where D (drug-treated)=the absorbance of drug-treated cells; ND (non drug-treated)=the absorbance of untreated infected cells; and NI (non-infected)=the absorbance of non-infected cells. […]

[5] = Toxicity in AVA5 replicon cells (neutral red dye uptake); settings: human, AVA5 cells (HCV RNA-replicating, Huh7-derived)
Procedure: The antiviral activity of test compounds were assayed in the stably HCV RNA-replicating cell line, AVA5, derived by transfection of the human hepatoblastoma cell line, Huh7 (Blight, et al., 2000, Science 290: 1972). […] Intracellular HCV RNA levels and cytotoxicity were assessed 24 hours after the last dose of compound.
Assays were conducted using 4-5 doses of test compound. […] HCV RNA levels were assessed 24 hours after the last dose of compound using a dot blot hybridization assay. Both HCV and β-actin RNA levels in triplicate treated cultures were expressed as a percentage of the mean levels of RNA detected in untreated cultures (6 total). β-Actin RNA levels were used both as a measure of toxicity, and to normalize the amount of cellular RNA in each sample. Toxicity analyses were performed on separate plates from those used for the antiviral assays. Cells for the toxicity analyses were cultured and treated with test compounds with the same schedule and under identical culture conditions as used for the antiviral evaluations. Uptake of neutral red dye was used to determine the relative level of toxicity 24 hours following the last treatment. The absorbance of internalized dye at 510 nm (A510) was used for the quantitative analysis. Values in test cultures were compared to 9 cultures of untreated cells maintained on the same plate as the test cultures.

[6] = tested on: HCV sub-genomic replicon genotype 1b; assay: HCV sub-genomic replicon assay in AVA5 cells (HCV RNA dot blot hybridization); format: cell-based, Hepatitis C Virus; settings: for SI (Selectivity Index): HCV replicon genotype 1b; for EC50: Hepatitis C virus, AVA5 cells, once daily for three days, HCV RNA 24 h after last dose
[7] = tested on: CEM-SS cells; assay: Cytotoxicity in CEM-SS cells; settings: at 300 μM
[8] = tested on: BVDV strain NADL; assay: Inhibition of viral release in BVDV-infected MDBK cells (plaque titration of supernatant); format: cell-based, Bovine Viral Diarrhea virus; settings: 24 h treatment
Procedure: (§1) Madin-Darby Bovine Kidney Cells (MDBK) (American Type Culture Collection (ATCC) No. CCL-22, Manassas, Va) were seeded into 96-well plates at a density of approximately 2×10^4 cells per well. The cell cultures were incubated for 3-24 hours to allow for attachment of cells to the culture plates prior to infection and addition of compounds. BVDV strain NADL (ATCC No. VR-534) plaque forming units (PFU) were added to each well to achieve a multiplicity of infection (MOI) ranging from about 1 or about 0.001, and allowed to remain in contact with the cultured cells for 1 to 2 hours. The virus was then removed and the cells were washed with growth medium (e.g., Dulbecco's Modified Eagles Medium (DMEM)) containing 5% horse serum (HS), or with phosphate buffered saline (PBS), 1% HS, and 1 mM MgCl2. The test compounds, dissolved in cell growth media with 2% HS, were then added to the BVDV-infected cells or uninfected cells (cytotoxicity determination) at various concentrations. The plates were incubated at 37° C., 5% CO2 for 24 hours (i.e., about one cycle of BVDV replication). The plates were then centrifuged at low speed and the supernatant was serially diluted for use in infecting a new monolayer of cells in 12-well plates. […] The virus plaques formed in MDBK cell cultures were quantified by a manual count and a titer was determined.

[9] = tested on: non-cytopathic BVDV Pe515; assay: Non-cytopathic BVDV genomic RNA reduction in MDBK cells (qRT-PCR); format: cell-based; settings: Bovine viral diarrhea virus isolates and strains, 72 h, MOI 0.001, three day treatment, FIG. 1, read-out: EC50 of ncp BVDV genomic replication
Procedure: MDBK cells were seeded into 6-or 96-well plates at a density of approximately 2×10^4 cells per well. The cultures were incubated 3-24 hours to permit attachment of the cells to the plates prior to infection and addition of compounds. The appropriate number of non-cytopathic BVDV Pe515 (ncp BVDV) PFU were added to each well to achieve the desired MOI (0.001); the cells were contacted with the virus diluted at the appropriate concentration in PBS containing 1% HS and 1 mM MgCl2 for 1 to 2 hours. The test compounds dissolved in cell growth media with 2% HS were added to the cells at varying concentrations. The plates were incubated at 37° C. in the presence of 5% CO2 for 3-4 days. […] Real-time quantitation was done using the Quantitative One Step Reverse Transcriptase (RT) Polymerase Chain Reaction (qRT-PCR) MasterMix Plus for SYBR® Green I (Eurogentec, San Diego, calif.). […] The following primers were used for the one step RT-PCR SYBR quantitation assay: forward primer 5′-[…]-3′ (SEQ ID NO:1) and reverse primer 5′-[…]-3′ (SEQ ID NO:2). […] Well-to-well variations in background fluorescence were corrected for by use of a ROX-labeled passive reference, included as part of the Eurogentec One Step qRT-PCR Master Mix for each sample. Amplification curves were analyzed by using empirically established cycle threshold and baseline settings for the assay. […]

[10] = tested on: MDBK cells; assay: Cytotoxicity in uninfected MDBK cells after 24 h treatment (OD490); format: cell-based, bovine; settings: untreated control OD490 1.2
Procedure: as §1

[11] = as above; format: cell-based, bovine; settings: bovine, compared to control, read-out: % Cytotoxicity of Compound 20 (1 μM)
Procedure: as §1

[12] = MOI of 0.01, monotherapy run in parallel to combination studies, read-out: EC50 (monotherapy)
[13] = MOI = 0.05, 3-4 days, read-out: EC50

| SMILES | EC50 [1, 12] [µM] | EC50 [2] [µM] | CC50 [3] [µM] | CC50 at 3 days [5] [µM] | SI (Selectivity Index) [6] | EC50 [6] [µM] | also measured |
| --- | --- | --- | --- | --- | --- | --- | --- |
| CCCC(=O)O[C@H]1CN2CC[C@H](O)[C@@H]2[C@@H](O)[C@@H]1O [Celgosivir, [1S-(1α,6β,7α,8β,8αβ)]-octahydro-1,6,7,8-indolizinetetrol 6-butanoate, reference compound] | 2.2 | – | – | – | – | – | – |
| C[C@]12CCC3c4cc(C56CC7CC(CC(C7)C5)C6)c(O)cc4CCC3C1CCC2=O (stereo partly shown) [Compound 2] | 0.23 | 19.7 | > 100 | – | – | – | – |
| C[C@]12CC[C@@H]3c4cc(C56CC7CC(CC(C7)C5)C6)c(O)cc4CC[C@H]3[C@@H]1CC/C2=N\N [Compound 4] | – | – | – | 24 | 353 | 0.068 | EC50 [1, 13]: 3.99 ± 0.99 µM; CC50 [4]: 34.5 ± 23.2 µM |
| CO/N=C1\CC[C@H]2[C@@H]3CCc4cc(O)c(C56CC7CC(CC(C7)C5)C6)cc4[C@H]3CC[C@]12C [Compound 5] | – | 5.8 | 17.3 | – | – | – | – |
| C[C@]12CC[C@@H]3c4ccc(OS(=O)(=O)O)cc4CC[C@H]3[C@@H]1CC[C@H]2O [Compound 16, 17(α)-estradiol-3-sulfate sodium] | – | > 300 | – | > 100 | >196 | 0.51 | cytotoxicity shown by the compound [7]: no cytotoxicity; inhibition at 300 µM ([2]; read-out: inhibition of HIV-1 induced cytotoxicity in CEM-SS cells): 20%; CC50 ([3]; CEM-SS cells): > 300 µM |
| C[C@]12CC[C@@H]3c4cc(C56CC7CC(CC(C7)C5)C6)c(O)cc4CC[C@H]3[C@@H]1CC[C@@H]2O [Compound 20, 17(β)-2-(1-adamantyl)-estra-1,3,5(10)-triene-3,17-diol] | – | 8.6 | 14.3 | 8.1 | 188 | 0.043 | EC50 ([1]; MOI 0.01, read-out: EC50): 0.34 ± 0.02 µM; EC50 ([1]; MOI 0.02, read-out: EC50): 0.51 µM; EC50 ([1]; MOI 0.03, read-out: EC50): 0.46 µM; EC50 [1, 13]: 0.8 ± 0.22 µM; Viral titer in presence of 1 μM of Compound 20 ([8]; untreated control 7.0 × 10^5 PFU/mL): 2.2 × 10^5 PFU/mL; inhibition at 1 µM ([8]; Bovine viral diarrhea virus isolates and strains, MDBK, compared to control, read-out: % Inhibition of Viral Release by Compound 20 at 1 μM): 69%; EC50 [9]: ~0.15 µM; CC50 [4]: 40.1 ± 25.1 µM; OD490 - 1 μM Compound 20 [10]: 1.2; cytotoxicity at 24 h, 1 µM [11]: 0% |
| C[C@@]1(O)[C@H](O)[C@@H](CO)O[C@H]1n1ccc(N)nc1=O [NM107, 2′-C-methyl cytidine, reference compound] | 0.99 | – | – | – | – | – | – |
